Measured values from PubChem BioAssay (NCI).
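GI50 = concentration required for 50% inhibition of growth. TGI is the concentration that stops growth completely.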

What was measured:
Assay in all cases: growth of human tumour cells (NCI), 384-well format
[1] = tested on: MCF7 breast
[2] = tested on: NCI-H23 lung
[3] = tested on: TK-10 renal
[4] = tested on: MALME-3M melanoma
[5] = tested on: NCI-H226 lung
[6] = tested on: SN12C renal
[7] = tested on: EKVX NSCLC
[8] = tested on: UACC-257 melanoma
[9] = tested on: SF-295 CNS
[10] = tested on: SK-MEL-2 melanoma
[11] = tested on: UACC-62 melanoma
[12] = tested on: HCT-15 colon
[13] = tested on: CCRF-CEM leukemia
[14] = tested on: OVCAR-5 ovarian
[15] = tested on: NCI-H460 NSCLC
[16] = tested on: SK-MEL-5 melanoma
[17] = tested on: HS 578T breast
[18] = tested on: PC-3 prostate
[19] = tested on: OVCAR-3 ovarian
[20] = tested on: MOLT-4 leukemia
[21] = tested on: NCI-H322M lung
[22] = tested on: K-562 leukemia
[23] = tested on: SNB-75 CNS
[24] = tested on: MDA-MB-468 breast
[25] = tested on: SW-620 colon
[26] = tested on: SF-539 CNS
[27] = tested on: DU-145 prostate
[28] = tested on: HL-60(TB) leukemia
[29] = tested on: SK-MEL-28 melanoma
[30] = tested on: OVCAR-4 ovarian
[31] = tested on: HT29 colon
[32] = tested on: RPMI-8226 leukemia
[33] = tested on: NCI-H522 lung
[34] = tested on: RXF 393 renal
[35] = tested on: SF-268 CNS
[36] = tested on: HOP-62 NSCLC
[37] = tested on: U251 glioblastoma
[38] = tested on: OVCAR-8 ovarian
[39] = tested on: SNB-19 CNS
[40] = tested on: ACHN renal
[41] = tested on: MDA-MB-231 breast
[42] = tested on: M14 melanoma
[43] = tested on: LOX IMVI melanoma
[44] = tested on: 786-0 renal
[45] = tested on: KM12 colon
[46] = tested on: SR leukemia
[47] = tested on: A549 NSCLC
[48] = tested on: BT-549 breast
[49] = tested on: HCT-116 colon
[50] = tested on: HOP-92 NSCLC
[51] = tested on: IGROV1 ovarian
[52] = tested on: A498 renal
[53] = tested on: NCI/ADR-RES ovarian
[54] = tested on: COLO 205 colon
[55] = tested on: UO-31 renal
[56] = tested on: T-47D breast
[57] = tested on: CAKI-1 renal
[58] = tested on: MDA-MB-435 melanoma
[59] = tested on: HCC-2998 colon
[60] = tested on: SK-OV-3 ovarian

CC(C)(C)C[C@H]1N[C@@H](C(=O)NC2CCC(O)CC2)[C@H](c2cccc(Cl)c2F)[C@@]12C(=O)Nc1cc(Cl)ccc12 (stereo not given in full)
GI50 [1]: 0.318 µM
TGI [1]: 7.21 µM
GI50 [2]: 10 µM
TGI [2]: 22.5 µM
GI50 [3]: 8.04 µM
TGI [3]: 20.8 µM
GI50 [4]: 0.229 µM
TGI [4]: 5.03 µM
GI50 [5]: 0.226 µM
TGI [5]: 1.1 µM
GI50 [6]: 14 µM
TGI [6]: 27.2 µM
GI50 [7]: 8.97 µM
TGI [7]: 21.5 µM
GI50 [8]: 0.556 µM
TGI [8]: 2.4 µM
GI50 [9]: 7.09 µM
TGI [9]: 19.8 µM
GI50 [10]: 4.41 µM
TGI [10]: 14.6 µM
GI50 [11]: 0.1 µM
TGI [11]: 1.86 µM
GI50 [12]: 10.7 µM
TGI [12]: 22.9 µM
GI50 [13]: 3.25 µM
TGI [13]: 10.6 µM
GI50 [14]: 13.6 µM
TGI [14]: 26.5 µM
GI50 [15]: 1.71 µM
TGI [15]: 14.9 µM
GI50 [16]: 2.57 µM
TGI [16]: 13.1 µM
GI50 [17]: 3.21 µM
TGI [17]: 11.9 µM
GI50 [18]: 7.04 µM
TGI [18]: 18.7 µM
GI50 [19]: 6.74 µM
TGI [19]: 19.2 µM
GI50 [20]: 0.0487 µM
TGI [20]: 0.152 µM
GI50 [21]: 17.2 µM
TGI [21]: 31.1 µM
GI50 [22]: 4.1 µM
TGI [22]: 13.6 µM
GI50 [23]: 6.62 µM
TGI [23]: 19.2 µM
GI50 [24]: 2.27 µM
TGI [24]: 9.06 µM
GI50 [25]: 14.7 µM
TGI [25]: 28 µM
GI50 [26]: 8.76 µM
TGI [26]: 22.3 µM
GI50 [27]: 13 µM
TGI [27]: 25.8 µM
GI50 [28]: 2.21 µM
TGI [28]: 4.44 µM
GI50 [29]: 7.87 µM
TGI [29]: 20.5 µM
GI50 [30]: 7.25 µM
TGI [30]: 20.3 µM
GI50 [31]: 3.65 µM
TGI [31]: 13.4 µM
GI50 [32]: 2.35 µM
TGI [32]: 4.06 µM
GI50 [33]: 3.32 µM
TGI [33]: 10.1 µM
GI50 [34]: 2.38 µM
TGI [34]: 8.18 µM
GI50 [35]: 13.6 µM
TGI [35]: 26.5 µM
GI50 [36]: 14.7 µM
TGI [36]: 28 µM
GI50 [37]: 12.2 µM
TGI [37]: 24.7 µM
GI50 [38]: 12.5 µM
TGI [38]: 25.1 µM
GI50 [39]: 14.1 µM
TGI [39]: 27.2 µM
GI50 [40]: 0.218 µM
TGI [40]: 2.53 µM
GI50 [41]: 9.89 µM
TGI [41]: 22.3 µM
GI50 [42]: 5.59 µM
TGI [42]: 20.3 µM
GI50 [43]: 0.366 µM
TGI [43]: 15.8 µM
GI50 [44]: 8.2 µM
TGI [44]: 21.1 µM
GI50 [45]: 2.15 µM
TGI [45]: 16.2 µM
GI50 [46]: 0.0271 µM
TGI [46]: 0.0996 µM
GI50 [47]: 0.5 µM
TGI [47]: 11.9 µM
GI50 [48]: 10.1 µM
TGI [48]: 23.2 µM
GI50 [49]: 0.304 µM
TGI [49]: 11.7 µM
GI50 [50]: 8.42 µM
TGI [50]: 21.4 µM
GI50 [51]: 6.09 µM
TGI [51]: 20.4 µM
GI50 [52]: 0.211 µM
TGI [52]: 3.41 µM
GI50 [53]: 17.5 µM
TGI [53]: 31.4 µM
GI50 [54]: 11.7 µM
TGI [54]: 24.1 µM
GI50 [55]: 0.461 µM
TGI [55]: 2.52 µM
GI50 [56]: 8.29 µM
TGI [56]: 20.8 µM
GI50 [57]: 0.195 µM
TGI [57]: 10.8 µM
GI50 [58]: 10.2 µM
TGI [58]: 23 µM
GI50 [59]: 9.2 µM
TGI [59]: 21.3 µM
GI50 [60]: 14.6 µM
TGI [60]: 27.9 µM
